In patent publication US20230365583A1, “FUSED TRICYCLIC PYRIMIDINE-THIENO-PYRIDINE SMALL MOLECULE INHIBITORS OF UBIQUITIN-SPECIFIC PROTEASE 28” (Dana-Farber Cancer Institute, Inc., priority 2020, published 2023):

The compounds below were run against T1, USP28 (Homo sapiens (Human), UniProt Q96RU2) (assay: Competitive activity-based protein profiling (Ub-VME labeling, Western blot) in K562 cell lysate). Conditions: K562 cells lysed, treated with compound for 1 h followed by incubation with Ub-VME; Western blot (FIG. 2).
Assay type: binding
Procedure: K562 cells were lysed and treated with indicated concentrations of compound 1 for 1 h followed by incubation with Ub-VME. Ub-VME covalently modifies USP28, resulting in higher MW band observed by Western blot.
Cells were pelleted, washed with PBS buffer, lysed on ice (20 mM Tris pH 8, 150 mM NaCl, 1% NP-40, 10% glycerol, 1 mM TCEP, phosphatase inhibitor cocktails (Sigma P5726 and Calbiochem 524624), and protease inhibitors (pepstatin, leupeptin, PMSF, and aprotinin), and clarified by centrifugation. Protein content was quantified by BCA and diluted to 2 mg/mL in lysis buffer. Compounds were added at desired concentrations and incubated at room temperature for 30 minutes. Samples were then supplemented with 2 uM HA-Ub-VS and incubated at room temperature with shaking for 15 minutes. Reactions were quenched with 4×LDS sample buffer (Thermo Fisher B0007) supplemented with 10% BME, vortexed vigorously, and heated to 95° C. for 5 minutes. Samples were resolved by SDS-PAGE and analyzed by Western blot with the indicated antibodies.

T1 sequence (Q96RU2 whole entry): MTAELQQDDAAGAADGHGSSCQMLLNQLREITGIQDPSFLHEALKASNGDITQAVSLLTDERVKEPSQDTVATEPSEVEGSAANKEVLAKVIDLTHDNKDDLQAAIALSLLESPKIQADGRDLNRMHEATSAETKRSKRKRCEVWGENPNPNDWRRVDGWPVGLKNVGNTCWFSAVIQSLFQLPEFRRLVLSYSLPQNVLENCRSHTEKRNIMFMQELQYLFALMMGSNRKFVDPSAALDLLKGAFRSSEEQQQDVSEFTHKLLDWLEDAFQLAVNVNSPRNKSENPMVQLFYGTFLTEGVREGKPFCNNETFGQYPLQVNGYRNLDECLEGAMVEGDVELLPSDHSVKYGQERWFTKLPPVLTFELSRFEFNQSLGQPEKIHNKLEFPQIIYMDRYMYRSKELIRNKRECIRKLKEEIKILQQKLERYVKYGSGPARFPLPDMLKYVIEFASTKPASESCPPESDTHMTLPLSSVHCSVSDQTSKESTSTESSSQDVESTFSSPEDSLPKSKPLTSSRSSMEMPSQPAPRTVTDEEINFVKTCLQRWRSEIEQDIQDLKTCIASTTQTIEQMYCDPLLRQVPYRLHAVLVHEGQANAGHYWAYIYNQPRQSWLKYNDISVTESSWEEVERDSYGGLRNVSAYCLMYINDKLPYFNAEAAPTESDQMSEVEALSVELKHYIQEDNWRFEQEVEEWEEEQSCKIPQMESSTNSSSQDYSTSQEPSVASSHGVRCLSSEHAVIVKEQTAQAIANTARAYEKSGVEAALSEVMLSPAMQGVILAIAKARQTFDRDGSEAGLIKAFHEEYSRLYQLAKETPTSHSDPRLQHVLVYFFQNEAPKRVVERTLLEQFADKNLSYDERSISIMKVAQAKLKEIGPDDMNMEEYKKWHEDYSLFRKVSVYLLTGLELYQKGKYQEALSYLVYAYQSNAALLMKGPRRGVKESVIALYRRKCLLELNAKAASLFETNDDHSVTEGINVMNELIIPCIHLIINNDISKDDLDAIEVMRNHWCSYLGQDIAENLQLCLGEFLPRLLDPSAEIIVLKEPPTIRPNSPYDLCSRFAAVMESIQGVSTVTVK

Compound | Target engagement: labeling of USP28 by covalent Ub-VME probe
CCCc1nc2sc3c(NCCc4ccc(OC)c(OC)c4)ncnc3c2c2c1CCC2 [Compound 1] | prevents labeling of USP28 by the covalent Ub-VME probe

What follows are compounds tested against T1, USP28 (assay: Ubiquitin-Rhodamine110 assay). Conditions: USP28 at 1 nM; 30 minutes pre-incubation at room temperature; Ubiquitin-Rho110 substrate 125 nM.
Assay type: biochemical
Procedure: USP28 (at 1 nM) was pre-incubated with different concentrations of inhibitors or DMSO as a control in 50 mM Tris pH 8, 50 mM NaCl, 0.002% Tween-20, 5 mM DTT. Compounds and protein were incubated for 30 minutes at room temperature prior to the addition of Ubiquitin-Rho110 (Boston Biochem) substrate for a final concentration of 125 nM. The initial rate of the reaction was measured by collecting fluorescence data at one-minute interval over 30-minute period using a Clariostar® fluorescence plate reader at excitation and emission wavelength of 485 nm and 535 nm, respectively. The calculated initial rate values were plotted against inhibitor concentrations to determine IC50s. All the experimental data were plotted using GraphPad Prism®.

Compound | IC50 [nM]
CCCc1nc2sc(C(=O)NCCc3ccc(OC)c(OC)c3)c(N)c2c2c1CCC2 [Compound 18] | < 1000
CCCc1nc2sc(C(=O)N[C@H](C)Cc3ccc(OC)cc3)c(N)c2c2c1CCC2 [Compound 50] | < 1000
Cc1ccc2c(N)c(C(=O)NCCc3ccc(N4CCN(C(=O)OC(C)(C)C)CC4)cc3)sc2n1 [Compound 31] | < 1000
CCCc1nc2sc(C(=O)NC(C)Cc3ccc(OC)c(OC)c3)c(N)c2c2c1CCC2 (centres unmarked) [Compound 37] | < 1000
Cc1ccc2c(N)c(C(=O)NCCc3ccc(C4CCNCC4)cc3)sc2n1 [Compound 22] | < 1000
CCCCCc1nc2sc(C(=O)NCCc3ccc(OC)c(OC)c3)c(N)c2c2c1CCC2 [Compound 49] | < 1000
CCCc1nc2sc(C(=O)NC[C@H](C)c3ccccc3)c(N)c2c2c1CCC2 [Compound 40] | < 1000
COc1ccc(CCNc2ncnc3c2sc2ncccc23)cc1OC [Compound 6] | 1000 to 10000
CCCc1nc2sc(C(=O)NCCc3ccc(OC)c(OC)c3)c(NCc3ccccc3)c2c2c1CCC2 [Compound 33] | < 1000
CCCc1nc2sc(C(=O)NCCc3ccc(OC)c(OC)c3)c(NC(C)=O)c2c2c1CCC2 [Compound 29] | < 1000
CCCc1nc2sc3c(N(C)CCc4ccc(OC)c(OC)c4)ncnc3c2c2c1CCC2 [Compound 7] | 10000 to 100000
CCCc1ccc2c(n1)sc1c(NCCc3ccc(OC)c(OC)c3)ncnc12 [Compound 38] | < 1000
COc1ccc(CCNc2ncnc3c2sc2ncc4c(c23)CCC4)cc1OC [Compound 8] | 1000 to 10000
CCCc1ccc2c(n1)sc1c(NCC(C)c3ccc(OC)c(OC)c3)ncnc12 (centres unmarked) [Compound 43] | < 1000
CCCc1nc2sc(C(=O)NC[C@@H](C)c3ccccc3)c(N)c2c2c1CCC2 [Compound 41] | < 1000
CCCc1nc2sc(C(=O)NCC(C)c3ccc(OC)c(OC)c3)c(N)c2c2c1CCC2 (centres unmarked) [Compound 36] | < 1000
COc1ccc(CCNC(=O)c2sc3nc(C)ccc3c2N)cc1OC [Compound 20] | < 1000
COc1ccc(CCNC(=O)c2sc3nc(C)c4c(c3c2N)CCC4)cc1OC [Compound 25] | < 1000
Cc1ccc2c(N)c(C(=O)NCCc3ccc(C4CC5CCC(C4)N5)cc3)sc2n1 (centres unmarked) [Compound 23] | < 1000
CCCc1nc2oc(C(=O)NCCc3ccc(OC)c(OC)c3)c(N)c2c2c1CCC2 [Compound 27] | < 1000
CCCc1ccc2c(N)c(C(=O)NCCc3ccc(OC)c(OC)c3)sc2n1 [Compound 28] | < 1000
CCCc1ccc2c(n1)sc1c(NCCc3ccc(N(C)C)cc3)ncnc12 [Compound 42] | < 1000
Cc1ccc2c(N)c(C(=O)NCCc3ccc(N4CCNCC4)cc3)sc2n1 [Compound 30] | < 1000
Cc1ccc2c(N)c(C(=O)NCCc3ccc(C4CC5CCC(C4)N5C(=O)OC(C)(C)C)cc3)sc2n1 (centres unmarked) [Compound 24] | < 1000
CCCc1nc2sc(C(=O)NCCc3ccc(O)c(O)c3)c(N)c2c2c1CCC2 [Compound 32] | < 1000
COc1ccc(CCNC(=O)c2sc3nc4c(c(C)c3c2N)CCC4)cc1OC [Compound 26] | < 1000
CCCc1nc2sc(C(=O)NCCc3ccc(OC)c(OC)c3)c(N)c2cc1C(=O)N(C)C [Compound 35] | < 1000
CCCc1ccc2c(n1)sc1c(NCCc3ccc4c(c3)OCCO4)ncnc12 [Compound 39] | < 1000
CCCc1nc2sc(C(=O)N[C@@H](C)Cc3ccc(OC)cc3)c(N)c2c2c1CCC2 [Compound 47] | < 1000
CCCc1nc2sc(C(=O)NCCc3ccc(OC)c(OC)c3)c(N)c2c2c1CCCC2 [Compound 46] | < 1000

The remaining lines, values ahead:

IC50 [nM] | Compound
1000 to 10000 | CCCc1nc2sc3c(NCCc4cc(OC)c(OC)c(OC)c4)ncnc3c2c2c1CCC2 [Compound 16]
< 1000 | CCCc1nc2sc3c(NCCc4ccc(N(C)C)cc4)ncnc3c2c2c1CCC2 [Compound 12]
< 1000 | CCCc1nc2sc3c(NCc4ccco4)ncnc3c2c2c1CCC2 [Compound 2]
1000 to 10000 | CCCc1nc2sc3c(OCCc4ccc(OC)c(OC)c4)ncnc3c2c2c1CCC2 [Compound 44]
10000 to 100000 | CCCc1nc2sc3c(NC4CCCCC4)ncnc3c2c2c1CCC2 [Compound 3]
< 1000 | CCCc1nc2sc(C(=O)NCCc3ccc(N4CCNCC4)cc3)c(N)c2c2c1CCC2 [Compound 21]
1000 to 10000 | CCCc1nc2sc3c(NCCc4ccc5c(c4)OCCO5)ncnc3c2c2c1CCC2 [Compound 13]
10000 to 100000 | CCCc1nc2sc3c(NCCc4cccc(OC)c4)ncnc3c2c2c1CCC2 [Compound 11]
< 1000 | CCCc1nc2sc3c(NCCc4ccc(OC)cc4)ncnc3c2c2c1CCC2 [Compound 10]
< 1000 | CCCCCc1nc2sc3c(NCCc4ccc(OC)c(OC)c4)ncnc3c2c2c1CCC2 [Compound 48]
10000 to 100000 | CCCc1nc2sc3c(NCCc4ccc(Cl)c(Cl)c4)ncnc3c2c2c1CCC2 [Compound 4]
< 1000 | CCCc1nc2sc3c(NCCc4cccs4)ncnc3c2c2c1CCC2 [Compound 17]
< 1000 | CCCc1nc2sc3c(NCc4ccc(OC)c(OC)c4)ncnc3c2c2c1CCC2 [Compound 9]
< 1000 | CCCc1nc2sc3c(NCCc4ccc(N5CCNCC5)cc4)ncnc3c2c2c1CCC2 [Compound 19]
< 1000 | CCCc1nc2sc3c(NCCc4ccc(OC)c(OC)c4)ncnc3c2c2c1CCC2 [Compound 1]
< 1000 | CCCc1nc2sc3c(NCCc4ccc(OC)c(OC)c4)ncnc3c2c2c1CCCC2 [Compound 45]
1000 to 10000 | CCCc1nc2sc3c(NCCc4c[nH]c5ccccc45)ncnc3c2c2c1CCC2 [Compound 15]
10000 to 100000 | CCCc1nc2sc3c(NCCCc4ccc(OC)c(OC)c4)ncnc3c2c2c1CCC2 [Compound 14]
> 100000 | CCCc1nc2sc3c(NCc4ccc(Cl)c(Cl)c4)ncnc3c2c2c1CCC2 [Compound 5]
